What is called EC50 is the midpoint of the concentration-response curve. The term solubility denotes the dissolved amount per volume that the medium holds.

≈ marks a conversion by molar mass, not a printed value. Like-named read-outs stand apart in the source and are kept apart here. Starred links: 1 amine or outer side, 2 acyl side, 3 side chain; linkers in the order of their positions; H or OH if unused. Positions of bridges follow the written chain, without caps; N, C: chain ends. Residues, ends and D or L forms follow the SMILES beside them. *: point of attachment. C20 diacid = O=C(O)CCCCCCCCCCCCCCCCCCC(=O)*; γGlu = O=C(O)[C@H](CCC(=O)[*:2])N[*:1]

Data set [1] concerns the target T1, human calcitonin receptor (Homo sapiens, UniProt P30988).
T1 construct: expressed in transfected cells; host or cells: BHK570
T1 sequence (P30988 25-474): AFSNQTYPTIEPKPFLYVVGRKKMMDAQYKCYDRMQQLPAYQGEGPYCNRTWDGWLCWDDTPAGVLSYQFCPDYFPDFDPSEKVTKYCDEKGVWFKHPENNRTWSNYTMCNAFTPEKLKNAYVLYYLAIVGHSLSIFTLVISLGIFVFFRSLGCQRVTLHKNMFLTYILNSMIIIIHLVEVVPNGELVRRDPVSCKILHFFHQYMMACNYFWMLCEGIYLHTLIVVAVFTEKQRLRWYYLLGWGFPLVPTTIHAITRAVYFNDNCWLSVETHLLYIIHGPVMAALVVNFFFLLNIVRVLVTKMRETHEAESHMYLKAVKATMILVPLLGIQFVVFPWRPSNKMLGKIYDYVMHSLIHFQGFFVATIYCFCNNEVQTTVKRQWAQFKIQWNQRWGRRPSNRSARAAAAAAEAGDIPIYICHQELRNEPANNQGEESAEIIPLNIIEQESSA
The data set is described as follows: Assay (II)a functional CRE-luciferase assay, human calcitonin receptor. Format: cell-based. Conditions: Table 7; human calcitonin (CTa) receptor.

The target in data set [2] is T2, human amylin receptor (amylin 3(a) receptor: human calcitonin receptor + RAMP-3) (Homo sapiens, UniProt O60896+P30988).
T2 construct: expressed in transfected cells; host or cells: BHK570
T2 sequence (P30988 25-474): T1 sequence (P30988 25-474)
T2 sequence (O60896 24-148 partner): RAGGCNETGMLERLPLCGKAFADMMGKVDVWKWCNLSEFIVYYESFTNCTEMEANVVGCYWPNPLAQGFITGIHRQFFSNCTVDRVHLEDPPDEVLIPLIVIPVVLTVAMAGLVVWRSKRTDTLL
The experiment in a line: Assay (II)a functional CRE-luciferase assay, human amylin receptor. Format: cell-based.

Data set [3] can be described thus: Assay (IV) determination of solubility. It is filed as physicochemical. The gist of the method:
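Polypeptide in water (~500 nmol/ml stock) was mixed 1:1 with 100 mM buffers from pH 3.0 to 8.0 (glycylglycine pH 3.0–5.0; bistrispropane pH 6.0–8.0). After 18 hours at room temperature, samples were centrifuged and the polypeptide remaining in solution was quantified by HPLC.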

Setting [4] is: Table 2, BHK amylin 3(a)-receptor/CRE-luc cells.
[5] abbreviates: bistrispropane buffer, pH 6, pH 6.0, read-out: Solubility pH 6.0.
The mark [6] stands for this setting: bistrispropane buffer, pH 7.5, pH 7.5, read-out: Solubility pH 7.5.
Where [7] appears, read: bistrispropane buffer, pH 8, pH 8.0, read-out: Solubility pH 8.0.
Setting [8] is: glycylglycine buffer, pH 3, pH 3.0, read-out: Solubility pH 3.0.
[9] abbreviates: glycylglycine buffer, pH 4, pH 4.0, 18 hours at room temperature, Table 2, read-out: Solubility pH 4.0.
[10] abbreviates: glycylglycine buffer, pH 4, pH 4.0, read-out: Solubility pH 4.0.
Setting [11] is: glycylglycine buffer, pH 5, pH 5.0, read-out: Solubility pH 5.0.
The mark [12] stands for this setting: bistrispropane buffer, pH 6.5, pH 6.5, read-out: Solubility pH 6.5.
The mark [13] stands for this setting: bistrispropane buffer, pH 7, pH 7.0, read-out: Solubility pH 7.0.

With `CC(C)C[C@H](NC(=O)[C@H](CCCNC(=N)N)NC(=O)[C@H](CCC(N)=O)NC(=O)[C@@H](NC(=O)[C@H](C)NC(=O)[C@@H]1CSSC[C@H](NC(=O)[C@H](Cc2cnc[nH]2)NC(=O)CC[C@H](NC(=O)CCCCCCCCCCCCCCCCCCC(=O)O)C(=O)O)C(=O)N[C@@H](CC(N)=O)C(=O)N[C@@H]([C@@H](C)O)C(=O)N[C@@H](C)C(=O)N[C@@H]([C@@H](C)O)C(=O)N1)[C@@H](C)O)C(=O)N[C@@H](C)C(=O)N[C@@H](CCC(=O)O)C(=O)N[C@@H](Cc1ccccc1)C(=O)N[C@@H](CC(C)C)C(=O)N[C@@H](Cc1cnc[nH]1)C(=O)N[C@@H](CCCNC(=N)N)C(=O)N[C@@H](CO)C(=O)N[C@@H](CO)C(=O)N[C@@H](CC(N)=O)C(=O)N[C@@H](CC(N)=O)C(=O)N[C@@H](Cc1ccccc1)C(=O)NCC(=O)N[C@@H](C)C(=O)N1CCC[C@H]1C(=O)N[C@@H](CC(C)C)C(=O)N[C@@H](CO)C(=O)N[C@@H](CO)C(=O)N[C@H](C(=O)N[C@@H](CC(N)=O)C(=O)N[C@H](C(=O)NCC(=O)N[C@@H](CO)C(=O)N[C@@H](CC(N)=O)C(=O)N[C@H](C(=O)N[C@@H](Cc1ccc(O)cc1)C(N)=O)[C@@H](C)O)C(C)C)[C@@H](C)O` [Example 6, N-alpha-[(S)-4-Carboxy-4-(19-carboxynonadecanoylamino)butyryl]-[His1,Glu14,His17,Arg18,Ala25,Pro26,Ser28,Ser29]-pramlintide] ({C20 diacid-γGlu}-HCNTATCATQRLAEFLHRSSNNFGAPLSSTNVGSNTY-NH2; disulfide 2-7), the EC50 worked out at 0.24 nM in data set [1] and 0.115 nM in data set [2] (setting [4]). For the same compound, the solubility at 18 h in data set [3] (setting [5]) was 12 µM (≈ 53.1 µg/mL); in data set [3] (setting [6]), 18 µM (≈ 79.6 µg/mL); in data set [3] (setting [7]) it was 48 µM (≈ 212 µg/mL); in data set [3] (setting [8]), > 200 µM; in data set [3] (setting [9]), 163 µM (≈ 721 µg/mL); in data set [3] (setting [10]), 163 µM (≈ 721 µg/mL). For the same compound, the solubility at 18 h in data set [3] (setting [11]) was determined as 168 µM (≈ 743 µg/mL); in data set [3] (pH 6.5, read-out: Solubility pH 6.5), 4 µM (≈ 17.7 µg/mL); in data set [3] (pH 7.0, read-out: Solubility pH 7.0), 7 µM (≈ 31 µg/mL).

Take `CC(C)C[C@H](NC(=O)[C@H](CCCNC(=N)N)NC(=O)[C@H](CCC(N)=O)NC(=O)[C@@H](NC(=O)[C@H](C)NC(=O)[C@@H]1CSSC[C@H](NC(=O)[C@H](Cc2c[nH]cn2)NC(=O)CC[C@H](NC(=O)CCCCCCCCCCCCCCCCCCC(=O)O)C(=O)O)C(=O)N[C@@H](CC(N)=O)C(=O)N[C@@H]([C@@H](C)O)C(=O)N[C@@H](C)C(=O)N[C@@H]([C@@H](C)O)C(=O)N1)[C@@H](C)O)C(=O)N[C@@H](C)C(=O)N[C@@H](CCC(=O)O)C(=O)N[C@@H](Cc1ccccc1)C(=O)N[C@@H](CC(C)C)C(=O)N[C@@H](Cc1c[nH]cn1)C(=O)N[C@@H](CCCNC(=N)N)C(=O)N[C@@H](CO)C(=O)N[C@@H](CO)C(=O)N[C@@H](CC(N)=O)C(=O)N[C@@H](CCC(=O)O)C(=O)N[C@@H](Cc1ccccc1)C(=O)NCC(=O)N[C@@H](C)C(=O)N[C@@H](CCCNC(=N)N)C(=O)N[C@@H](CC(C)C)C(=O)N[C@@H](CO)C(=O)N[C@@H](CO)C(=O)N[C@H](C(=O)N[C@@H](CC(N)=O)C(=O)N[C@H](C(=O)NCC(=O)N[C@@H](CO)C(=O)N[C@@H](CC(N)=O)C(=O)N[C@H](C(=O)N[C@@H](Cc1ccc(O)cc1)C(N)=O)[C@@H](C)O)C(C)C)[C@@H](C)O` [Example 8, N-alpha-[(S)-4-Carboxy-4-(19-carboxynonadecanoylamino)butyryl]-[His1,Glu14,His17,Arg18,Glu22,Ala25,Arg26,Ser28,Ser29]-pramlintide] ({C20 diacid-γGlu}-HCNTATCATQRLAEFLHRSSNEFGARLSSTNVGSNTY-NH2; disulfide 2-7 (inferred)): the EC50 in data set [1] is 0.279 nM; in data set [2] (Table 6, human amylin receptor), 0.127 nM. Moreover, the solubility at 18 h in data set [3] (setting [5]) is 1 µM (≈ 4.5 µg/mL); in data set [3] (setting [12]), 1 µM (≈ 4.5 µg/mL); in data set [3] (setting [13]) it was 1 µM (≈ 4.5 µg/mL); in data set [3] (setting [6]), 1 µM (≈ 4.5 µg/mL); in data set [3] (setting [7]), 3 µM (≈ 13.5 µg/mL); in data set [3] (setting [8]) it was 178 µM (≈ 800 µg/mL). Moreover, the solubility at 18 h in data set [3] (setting [10]) is 93 µM (≈ 418 µg/mL); in data set [3] (setting [11]) it was 2 µM (≈ 8.99 µg/mL).

Regarding `CC[C@H](C)[C@H](NC(=O)[C@@H]1CCCN1C(=O)CNC(=O)[C@H](Cc1ccccc1)NC(=O)[C@H](CC(N)=O)NC(=O)[C@H](CCC(N)=O)NC(=O)[C@H](CO)NC(=O)[C@H](CO)NC(=O)[C@H](Cc1c[nH]cn1)NC(=O)[C@H](CCCNC(=N)N)NC(=O)[C@H](CC(C)C)NC(=O)[C@H](Cc1ccccc1)NC(=O)[C@H](CCC(=O)O)NC(=O)[C@H](C)NC(=O)[C@H](CC(C)C)NC(=O)[C@H](CCCNC(=N)N)NC(=O)[C@H](CCC(N)=O)NC(=O)[C@@H](NC(=O)[C@H](C)NC(=O)[C@@H]1CSSC[C@H](NC(=O)[C@H](CCCNC(=N)N)NC(=O)[C@H](CCC(=O)O)NC(=O)[C@H](CCC(=O)O)NC(=O)CC[C@H](NC(=O)CCCCCCCCCCCCCCCCCCC(=O)O)C(=O)O)C(=O)N[C@@H](CC(N)=O)C(=O)N[C@@H]([C@@H](C)O)C(=O)N[C@@H](C)C(=O)N[C@@H]([C@@H](C)O)C(=O)N1)[C@@H](C)O)C(=O)N[C@@H](CC(C)C)C(=O)N1CCC[C@H]1C(=O)N1CCC[C@H]1C(=O)N[C@H](C(=O)N[C@@H](CC(N)=O)C(=O)N[C@H](C(=O)NCC(=O)N[C@@H](CO)C(=O)N[C@@H](CC(N)=O)C(=O)N[C@H](C(=O)N1CCC[C@H]1C(N)=O)[C@@H](C)O)C(C)C)[C@@H](C)O` [Example 157, N-alpha-[(S)-4-Carboxy-4-(19-carboxynonadecanoylamino)butyryl]-Glu-Glu-[Arg1,Glu14,Arg17,Gln21,Pro37]-pramlintide] ({C20 diacid-γGlu}-EERCNTATCATQRLAEFLRHSSQNFGPILPPTNVGSNTP-NH2; disulfide 4-9 (inferred); C-terminus assumed), the EC50 in data set [1] amounted to 0.547 nM; in data set [2] (setting [4]) it was 0.465 nM. The solubility at 18 h in data set [3] (setting [5]) was > 200 µM; in data set [3] (setting [12]), > 200 µM; in data set [3] (bistrispropane buffer, pH 7, pH 7.0, 18 hours at room temperature, Table 3, read-out: Solubility pH 7.0) it was > 200 µM; in data set [3] (setting [13]) it was > 200 µM; in data set [3] (setting [6]), > 200 µM; in data set [3] (setting [7]) it was > 200 µM. In addition, the solubility at 18 h in data set [3] (setting [8]), in data set [3] (setting [9]), in data set [3] (setting [10]) and in data set [3] (setting [11]) was > 200 µM in each case.
